According to US20230285405A1, “Pharmaceuticals for Treating or Preventing Nidoviruses and Picornaviruses” (priority 2020, published 2023):
Counter-ions that a name gives are not always drawn. Like-named read-outs stand apart in the source and are kept apart here.

Tests used:
OC43 = assay: Drug screening: OC43 nucleoprotein staining in infected A549-mRuby cells; format: cell-based, human beta coronavirus OC43
In short: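 A549 cells expressing H2B-mRuby infected with OC43 at MOI 0.3 for 1 h at 33° C, then drugs added at 10 μM final and incubated 4 days at 33° C. Viral nucleoprotein immunostained and imaged; intensity normalized to cell number and no-drug controls (=100). Hits reduced staining >3 SD in both repeats without toxicity.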

A549-mRuby cells = assay: Drug screening: effect on cell growth (cell number day 4 / day 0); details: 10 μM drug; for Growth_1: number of cells at day 4 divided by number of cells at day 0 / toxic_1: repeat #1; for Growth_2: number of cells at day 4 divided by number of cells at day 0 / toxic_2: repeat #2
In short: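 A549 cells carrying an H2B-mRuby reporter were infected with OC43 at MOI 0.3 for 1 h at 33° C, then given drug at 10 μM final. Cell numbers were counted by imaging at day 0 and again at day 4 after 4 days at 33° C, 5% CO2, with the screen run twice.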

[1] = Betacoronavirus 1, OC43, 96 h, 10 μM drug, MOI 0.3, 4 days, OC43 staining normalized to no-drug controls, mean of the two screen repeats, read-out: OC43_mean
[2] = Betacoronavirus 1, OC43, 96 h, 10 μM drug, MOI 0.3, 4 days, normalized to no-drug controls in the same plate, repeat #1, read-out: OC43_1: % staining of OC43 in screen repeat #1
[3] = Betacoronavirus 1, OC43, 96 h, 10 μM drug, MOI 0.3, 4 days, normalized to no-drug controls in the same plate, repeat #2, read-out: OC43_2: % staining of OC43 in screen repeat #2
[4] = 10 μM drug, MOI 0.3, 4 days, OC43 staining normalized to no-drug controls, mean of the two screen repeats
[5] = 10 μM drug, MOI 0.3, 4 days, normalized to no-drug controls in the same plate, repeat #1
[6] = 10 μM drug, MOI 0.3, 4 days, normalized to no-drug controls in the same plate, repeat #2

Row | Molecule | hit_1 (OC43; 10 μM drug, repeat #1) | hit_2 (OC43; 10 μM drug, repeat #2) | activity at 10 µM (OC43; [1]) | activity at 10 µM (OC43; [2]) | activity at 10 µM (OC43; [3]) | Growth_1: number of cells at day 4 divided by number of cells at day 0 (A549-mRuby cells) | toxic_1 (A549-mRuby cells) | Growth_2: number of cells at day 4 divided by number of cells at day 0 (A549-mRuby cells) | toxic_2 (A549-mRuby cells) | activity at 10 µM (OC43; Betacoronavirus 1, OC43, 96 h, read-out: OC43_mean) | OC43_mean (OC43; [4]) | OC43_1: % staining of OC43 in screen repeat #1 (OC43; [5]) | OC43_2: % staining of OC43 in screen repeat #2 (OC43; [6]) | activity at 10 µM (OC43; Betacoronavirus 1, 96 h, 10 μM drug, MOI 0.3, 4 days, OC43 staining normalized to no-drug controls, mean of the two screen repeats, read-out: OC43_mean) | OC43_mean (OC43)
1 | CC(N)C12CC3CC(CC(C3)C1)C2 (stereo not drawn) [Rimantadine Hydrochloride] | 1 | 1 | 52.6% | 50.6% | 54.6% | 4.4 | 0 | 5.1 | 0 |  |  |  |  |  | 
2 | CC[C@H]1OC(=O)[C@H](C)[C@@H](O[C@H]2C[C@@](C)(OC)[C@@H](O)[C@H](C)O2)[C@H](C)[C@@H](O[C@@H]2O[C@H](C)C[C@H](N(C)C)[C@H]2O)[C@](C)(O)C[C@@H](C)/C(=N\OCOCCOC)[C@H](C)[C@@H](O)[C@]1(C)O [Roxithromycin] | 1 | 1 | 41.4% | 55.8% | 27.1% | 5.2 | 0 | 5.6 | 0 |  |  |  |  |  | 
3 | OCc1cc(C(O)CNCCCCCCOCCCCc2ccccc2)ccc1O (stereo not drawn) [Salmeterol Xinafoate] | 1 | 1 |  | 39.3% | 20.4% | 2.9 | 0 | 2.5 | 0 | 29.9% |  |  |  |  | 
4 | CN1CCN(CCOc2cc(OC3CCOCC3)c3c(Nc4c(Cl)ccc5c4OCO5)ncnc3c2)CC1 [Saracatinib (AZD0530), Saracatinib] | 1 | 1 | 22.7% | 21.2% | 24.1% | 3.1 | 0 | 4.0 | 0 |  |  |  |  |  | 
5 | COc1cccc(CCc2ccccc2OCC(CN(C)C)OC(=O)CCC(=O)O)c1 (stereo not drawn) [Sarpogrelate hydrochloride] | 1 | 1 | 25.9% | 26.8% | 24.9% | 5.0 | 0 | 5.4 | 0 |  |  |  |  |  | 
6 | O=C(O[C@H]1CN2CCC1CC2)N1CCc2ccccc2[C@@H]1c1ccccc1 [Solifenacin] | 1 | 1 | 25% | 20.4% | 29.6% | 4.3 | 0 | 3.4 | 0 |  |  |  |  |  | 
7 | CN1CCC(COc2cnc(-c3cccc(Cn4nc(-c5cccc(C#N)c5)ccc4=O)c3)nc2)CC1 [Tepotinib (EMD 1214063), Tepotinib] | 1 | 1 | 28.9% | 15.3% | 42.6% | 5.3 | 0 | 5.2 | 0 |  |  |  |  |  | 
8 | C[C@@H]1CCN(C(=O)CC#N)C[C@@H]1N(C)c1ncnc2[nH]ccc12.O=C(O)CC(O)(CC(=O)O)C(=O)O [Tofacitinib (CP-690550) Citrate] | 1 | 1 |  |  |  | 4.8 | 0 | 4.7 | 0 |  | 58.5% | 56.5% | 60.4% |  | 
9 | CN1CCN(CCCN2c3ccccc3Sc3ccc(C(F)(F)F)cc32)CC1.Cl.Cl [Trifluoperazine 2HCl] | 1 | 1 |  |  |  | 2.3 | 0 | 2.1 | 0 |  | 31.6% | 33.8% | 29.5% |  | 
10 | CN1[C@@H]2CC[C@H]1C[C@@H](OC(=O)c1c[nH]c3ccccc13)C2 [Tropisetron HCl] | 1 | 1 | 58% | 52.6% | 63.4% | 5.8 | 0 | 5.5 | 0 |  |  |  |  |  | 
11 | C=C[C@]1(C)C[C@@H](OC(=O)CSC(C)(C)CNC(=O)[C@H](N)C(C)C)[C@]2(C)[C@H](C)CC[C@]3(CCC(=O)[C@H]32)[C@@H](C)[C@@H]1O [Valnemulin HCl] | 1 | 1 |  | 27.7% | 37.1% | 4.4 | 0 | 4.5 | 0 |  |  |  |  | 32.4% | 
12 | CCOC(=O)N[C@@H]1CC[C@@H]2[C@@H](C1)C[C@H]1C(=O)O[C@H](C)[C@H]1[C@H]2/C=C/c1ccc(-c2cccc(F)c2)cn1 [Vorapaxar] | 1 | 1 | 50.9% | 53.5% | 48.3% | 4.4 | 0 | 4.1 | 0 |  |  |  |  |  | 
13 | Cc1cc(C(C)(C)C)cc(C)c1CC1=NCCN1 [Xylometazoline HCl] | 1 | 1 | 49.7% | 54% | 45.4% | 5.4 | 0 | 5.7 | 0 |  |  |  |  |  | 
14 | Alimemazine Tartrate | 1 | 1 |  |  |  | 2.6 | 0 | 2.2 | 0 |  | 40.8% | 47.9% | 33.7% |  | 
15 | Carvedilol Phosphate | 1 | 1 |  |  |  | 4.4 | 0 | 2.9 | 0 |  | 28.9% | 32.3% | 25.5% |  | 
16 | Dimemorfan phosphate | 1 | 1 |  |  |  | 6.0 | 0 | 5.4 | 0 |  |  | 39.7% | 26.2% |  | 33.0%
